In patent publication US20250129047A1, “ISOQUINOLINE DERIVATIVES AS MUTANT EGFR MODULATORS AND USES THEREOF” (NEWAVE PHARMACEUTICAL INC., priority 2021, published 2025):

Legend:
Conditions in all cases: apparent IC50; 1.0 mM ATP or ATP Km; FL-Peptide 22 substrate; 25° C.
[1] = biological target: T1, EGFR (d746-750) T790M C797S (Homo sapiens, UniProt P00533, C797S/DEL746-750/T790M); experiment: Biochemical EGFR inhibition assay (Caliper mobility shift), EGFR d746-750 T790M C797S
T1 construct: purchased SignalChem E10-122UG
T1 sequence (P00533 with tags, fused parts or gaps DEL746-750/T790M/C797S limits assumed): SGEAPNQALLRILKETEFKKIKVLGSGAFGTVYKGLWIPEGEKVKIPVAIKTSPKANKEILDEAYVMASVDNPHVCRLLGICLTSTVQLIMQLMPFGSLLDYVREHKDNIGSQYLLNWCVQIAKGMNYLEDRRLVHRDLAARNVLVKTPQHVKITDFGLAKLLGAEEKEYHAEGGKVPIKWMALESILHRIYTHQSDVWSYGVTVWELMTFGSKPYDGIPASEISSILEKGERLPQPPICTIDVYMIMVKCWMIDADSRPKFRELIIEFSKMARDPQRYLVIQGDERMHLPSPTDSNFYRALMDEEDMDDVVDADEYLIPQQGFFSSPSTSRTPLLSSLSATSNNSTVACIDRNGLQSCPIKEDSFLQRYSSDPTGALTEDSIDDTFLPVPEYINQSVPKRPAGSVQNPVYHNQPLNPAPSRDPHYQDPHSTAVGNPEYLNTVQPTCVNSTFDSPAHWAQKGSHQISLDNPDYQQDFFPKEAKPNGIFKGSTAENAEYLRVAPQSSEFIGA
Protocol: (§1) Inhibitory effects of the compounds of the disclosure were measured in biochemical assays that measure the phosphorylation activity of EGFR enzyme phosphorylates 2.5 micromolar 5-FAM-EEPLYWSFPAKKK-CONFF peptide substrate (FL-Peptide 22, PerkinElmer, 760366) in the presence of adenosine-5′-triphosphate (ATP) and varying concentrations of the test compound in 100 mM 2-[4-(2-hydroxyethyl)piperazin-1-yl]ethanesulfonic acid (HEPES), pH 7.5, 10 mM MgCE. 0.015% Brij-35, 1 mM dithiothreitol (DTT), 1.0% dimehylsulfoxide (DMSO). Assays were performed at 1.0 mM ATP or at ATP Km of the EGFR enzymes. Reactions proceeded until between 10% to 20% total peptides were phosphorylated at room temperature (25° C.) and were terminated with 35 mM 2,2′,2″,2″-(ethane-1,2-diyldinitrilo)tetraacetic acid (EDTA). Product was detected using the Caliper mobility shift detection method where the phosphorylated peptide (product) and substrate were electrophoretically separated and measured. Percent activity was plotted against log concentration of compound and points to generate an apparent IC50. […]

EGFR L858R = biological target: T2, EGFR L858R (Homo sapiens, UniProt P00533, L858R); experiment: Biochemical EGFR inhibition assay (Caliper mobility shift), EGFR L858R
T2 construct: purchased SignalChem E10-122BG
T2 sequence (P00533 25-1210 L858R): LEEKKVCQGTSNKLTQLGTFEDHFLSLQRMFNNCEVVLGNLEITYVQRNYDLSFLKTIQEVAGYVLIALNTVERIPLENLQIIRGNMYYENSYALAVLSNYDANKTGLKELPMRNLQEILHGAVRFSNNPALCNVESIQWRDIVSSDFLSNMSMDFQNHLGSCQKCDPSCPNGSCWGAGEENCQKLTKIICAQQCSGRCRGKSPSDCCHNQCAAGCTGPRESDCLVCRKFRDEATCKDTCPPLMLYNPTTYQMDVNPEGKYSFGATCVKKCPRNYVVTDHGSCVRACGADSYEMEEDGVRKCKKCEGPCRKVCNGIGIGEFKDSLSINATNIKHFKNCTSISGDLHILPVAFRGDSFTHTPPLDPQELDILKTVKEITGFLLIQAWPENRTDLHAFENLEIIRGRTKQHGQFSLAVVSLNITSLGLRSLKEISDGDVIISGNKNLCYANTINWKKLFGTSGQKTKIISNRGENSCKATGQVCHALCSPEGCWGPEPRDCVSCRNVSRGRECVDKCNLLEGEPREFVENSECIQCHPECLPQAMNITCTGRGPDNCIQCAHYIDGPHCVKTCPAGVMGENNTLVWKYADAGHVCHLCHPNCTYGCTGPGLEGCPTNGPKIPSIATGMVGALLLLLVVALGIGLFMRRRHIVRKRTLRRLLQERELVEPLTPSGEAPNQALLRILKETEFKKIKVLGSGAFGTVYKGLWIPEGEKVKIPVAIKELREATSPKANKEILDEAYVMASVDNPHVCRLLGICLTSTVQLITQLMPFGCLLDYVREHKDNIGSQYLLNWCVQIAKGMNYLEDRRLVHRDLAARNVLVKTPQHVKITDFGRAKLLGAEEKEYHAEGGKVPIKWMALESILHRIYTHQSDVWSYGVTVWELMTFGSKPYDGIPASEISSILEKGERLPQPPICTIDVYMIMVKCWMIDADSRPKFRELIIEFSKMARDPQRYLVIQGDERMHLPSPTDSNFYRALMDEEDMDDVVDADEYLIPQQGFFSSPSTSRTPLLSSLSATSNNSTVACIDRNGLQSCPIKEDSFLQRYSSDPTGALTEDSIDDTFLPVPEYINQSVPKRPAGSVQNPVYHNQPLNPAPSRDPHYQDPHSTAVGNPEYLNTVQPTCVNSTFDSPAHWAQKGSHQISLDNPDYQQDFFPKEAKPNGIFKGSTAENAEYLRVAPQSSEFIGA
Protocol: as §1

EGFR d746-750 T790M = EGFR d746-750 T790M (Homo sapiens, UniProt P00533, DEL746-750/T790M); experiment: Biochemical EGFR inhibition assay (Caliper mobility shift), EGFR d746-750 T790M
Sequence of EGFR d746-750 T790M (P00533 with tags, fused parts or gaps DEL746-750/T790M limits assumed): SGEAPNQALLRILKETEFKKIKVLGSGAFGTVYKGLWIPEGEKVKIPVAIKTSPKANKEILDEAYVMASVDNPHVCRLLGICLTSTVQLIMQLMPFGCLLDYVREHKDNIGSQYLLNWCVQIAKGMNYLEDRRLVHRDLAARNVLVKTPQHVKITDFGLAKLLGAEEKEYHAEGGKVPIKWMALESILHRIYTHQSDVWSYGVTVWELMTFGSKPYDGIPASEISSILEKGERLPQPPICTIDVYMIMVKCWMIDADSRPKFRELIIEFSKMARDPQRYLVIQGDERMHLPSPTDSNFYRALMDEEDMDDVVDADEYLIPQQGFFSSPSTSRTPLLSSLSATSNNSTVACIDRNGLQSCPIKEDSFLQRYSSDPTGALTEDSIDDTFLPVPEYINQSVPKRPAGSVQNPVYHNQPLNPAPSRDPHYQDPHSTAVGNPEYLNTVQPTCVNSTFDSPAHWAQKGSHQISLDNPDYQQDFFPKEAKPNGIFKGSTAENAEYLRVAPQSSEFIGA
Protocol: as §1

EGFR L858R T790M = EGFR L858R T790M (Homo sapiens, UniProt P00533, L858R/T790M); experiment: Biochemical EGFR inhibition assay (Caliper mobility shift), EGFR L858R T790M
Sequence of EGFR L858R T790M (P00533 25-1210 T790M/L858R): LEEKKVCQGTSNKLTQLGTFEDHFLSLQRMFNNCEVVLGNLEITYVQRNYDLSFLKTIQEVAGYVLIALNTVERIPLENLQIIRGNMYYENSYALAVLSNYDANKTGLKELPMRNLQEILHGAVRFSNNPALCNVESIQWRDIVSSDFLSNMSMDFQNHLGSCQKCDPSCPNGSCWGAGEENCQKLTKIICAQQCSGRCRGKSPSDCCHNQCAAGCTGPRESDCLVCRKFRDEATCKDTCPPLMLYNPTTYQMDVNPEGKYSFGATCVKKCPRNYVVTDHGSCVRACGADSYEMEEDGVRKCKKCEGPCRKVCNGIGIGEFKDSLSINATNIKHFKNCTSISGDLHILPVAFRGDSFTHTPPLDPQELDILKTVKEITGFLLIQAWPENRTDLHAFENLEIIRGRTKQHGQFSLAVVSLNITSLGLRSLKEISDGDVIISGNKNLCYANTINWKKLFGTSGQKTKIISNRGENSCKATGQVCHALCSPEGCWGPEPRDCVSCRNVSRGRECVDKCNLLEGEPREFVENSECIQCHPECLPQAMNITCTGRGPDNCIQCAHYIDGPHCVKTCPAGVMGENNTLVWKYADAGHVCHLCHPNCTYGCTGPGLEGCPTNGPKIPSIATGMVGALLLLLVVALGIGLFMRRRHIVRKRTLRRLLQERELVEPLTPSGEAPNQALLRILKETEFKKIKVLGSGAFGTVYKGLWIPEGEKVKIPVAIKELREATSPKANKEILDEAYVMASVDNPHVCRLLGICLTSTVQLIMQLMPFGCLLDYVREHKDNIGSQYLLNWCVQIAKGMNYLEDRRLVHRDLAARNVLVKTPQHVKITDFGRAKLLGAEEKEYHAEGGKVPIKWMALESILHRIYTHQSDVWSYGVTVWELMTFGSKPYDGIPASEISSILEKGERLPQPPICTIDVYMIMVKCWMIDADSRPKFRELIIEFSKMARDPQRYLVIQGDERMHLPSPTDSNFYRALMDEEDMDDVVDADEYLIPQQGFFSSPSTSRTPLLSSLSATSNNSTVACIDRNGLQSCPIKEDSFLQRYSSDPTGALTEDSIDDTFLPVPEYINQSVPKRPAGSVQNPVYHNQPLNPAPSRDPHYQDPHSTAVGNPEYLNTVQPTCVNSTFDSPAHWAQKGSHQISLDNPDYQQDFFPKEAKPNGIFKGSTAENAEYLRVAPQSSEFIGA
Protocol: as §1

EGFR (L858R T790M C797S) = biological target: T3, EGFR (L858R T790M C797S) (Homo sapiens, UniProt P00533, C797S/L858R/T790M); experiment: Biochemical EGFR inhibition assay (Caliper mobility shift), EGFR L858R T790M C797S
T3 construct: purchased SignalChem E10-122VG
T3 sequence (P00533 25-1210 T790M/C797S/L858R): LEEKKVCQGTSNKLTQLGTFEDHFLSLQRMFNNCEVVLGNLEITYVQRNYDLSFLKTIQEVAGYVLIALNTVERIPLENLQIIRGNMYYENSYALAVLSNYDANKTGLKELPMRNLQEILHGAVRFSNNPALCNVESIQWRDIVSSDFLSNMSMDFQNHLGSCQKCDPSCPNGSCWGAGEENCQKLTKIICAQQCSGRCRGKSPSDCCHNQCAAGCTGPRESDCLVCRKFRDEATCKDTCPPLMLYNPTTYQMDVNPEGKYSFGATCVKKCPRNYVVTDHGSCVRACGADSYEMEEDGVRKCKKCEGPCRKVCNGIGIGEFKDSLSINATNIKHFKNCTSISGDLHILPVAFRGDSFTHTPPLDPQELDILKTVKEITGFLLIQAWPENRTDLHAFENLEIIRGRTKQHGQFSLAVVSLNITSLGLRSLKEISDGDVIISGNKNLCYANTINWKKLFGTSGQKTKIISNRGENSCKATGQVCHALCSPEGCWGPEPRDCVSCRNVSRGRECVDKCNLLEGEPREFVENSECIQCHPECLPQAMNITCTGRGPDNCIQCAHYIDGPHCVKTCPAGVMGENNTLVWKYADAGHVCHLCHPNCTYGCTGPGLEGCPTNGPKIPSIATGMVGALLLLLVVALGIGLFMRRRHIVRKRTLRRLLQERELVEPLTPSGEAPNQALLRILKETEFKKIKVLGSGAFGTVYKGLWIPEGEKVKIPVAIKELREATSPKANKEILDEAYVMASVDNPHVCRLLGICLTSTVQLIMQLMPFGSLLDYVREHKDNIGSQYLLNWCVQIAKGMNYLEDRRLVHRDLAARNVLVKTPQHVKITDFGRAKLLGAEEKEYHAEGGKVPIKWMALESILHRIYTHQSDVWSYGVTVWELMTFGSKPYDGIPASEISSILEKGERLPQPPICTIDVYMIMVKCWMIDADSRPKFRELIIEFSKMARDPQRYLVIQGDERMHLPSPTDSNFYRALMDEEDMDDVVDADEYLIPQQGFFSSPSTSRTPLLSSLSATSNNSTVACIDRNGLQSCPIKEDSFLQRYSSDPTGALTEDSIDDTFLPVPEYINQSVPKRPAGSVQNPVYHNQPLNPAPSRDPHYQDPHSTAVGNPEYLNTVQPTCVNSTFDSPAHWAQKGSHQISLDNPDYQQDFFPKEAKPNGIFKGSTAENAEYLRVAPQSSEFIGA
Protocol: as §1

Row | IC50 [1] [pM] | IC50 (EGFR L858R) [pM] | IC50 (EGFR d746-750 T790M) [pM] | IC50 (EGFR L858R T790M) [pM] | IC50 (EGFR (L858R T790M C797S)) [pM] | SMILES
1 | 2300 | 100000 | – | – | – | C=CC(=O)N1CCC[C@H]1c1ccc(N2C[C@H](CS(C)(=O)=O)[C@H]2C)c2cnc(Nc3ccnc(N4CC[C@@H](OC)[C@@H](F)C4)n3)cc12 [Example 2, 1-[(2S)-2-[3-({2-[(3S,4R)-3-fluoro-4-methoxypiperidin-1-yl]pyrimidin-4-yl}amino)-8-[(2R,3S)-3-(methanesulfonylmethyl)-2-methylazetidin-1-yl]isoquinolin-5-yl]pyrrolidin-1-yl]prop-2-en-1-one]
2 | 150 | 1500 | 880 | 290 | 690 | C=CC(=O)N1CCC[C@@H]1c1ccc(N2C[C@H](CS(C)(=O)=O)[C@H]2C)c2cnc(Nc3ccnc(N4CC[C@@H](OC)[C@@H](F)C4)n3)cc12 [Example 3, 1-[(2R)-2-[3-({2-[(3S,4R)-3-fluoro-4-methoxypiperidin-1-yl]pyrimidin-4-yl}amino)-8-[(2R,3S)-3-(methanesulfonylmethyl)-2-methylazetidin-1-yl]isoquinolin-5-yl]pyrrolidin-1-yl]prop-2-en-1-one]
